The source of these data is a melting point compilation (Tetko et al.; mined from patent text by program, amines drawn as free bases though some values may be those of a salt).

Residues, ends and D or L forms follow the SMILES beside them. *: point of attachment. Cbz = O=C(OCc1ccccc1)*

By melting point is commonly meant the temperature, or range, at which the solid turns liquid.

In turn, `Cc1cccc(OC(=O)c2ccccc2)c1` yielded a melting point of 51 to 54 °C.
Under `O=c1[nH]c2ncc(-c3ccc(O)cc3)nc2n1CC1CCOC1` (stereo not drawn) stands 256 to 258 °C.
Consider `COc1ccc(Oc2cccc(-c3nnc(Nc4ccc(Cl)c(Cl)c4)s3)c2)cc1`, for which the melting point is 198 to 199 °C.
`Oc1nc(Cl)nc(NN=Cc2cc(C(F)(F)F)cc(C(F)(F)F)c2)n1` yielded a melting point of 258 °C.
Take `Clc1ccc2c(c1)C(Br)Cn1cccc1S2` (stereo not drawn): the melting point lay in the range of 106 to 107 °C.
For the compound `CC(OCc1cc2cc(C(F)(F)F)ccc2n1S(=O)(=O)c1ccc2c(c1)OCCN2C)C(=O)O` (stereo not drawn), the melting point was in the range of 118 to 120 °C.
The same measure for `O=c1cc(-c2ccccc2)oc2ccc(OCCCCCCCN3CCC(O)CC3)cc12`: 135 to 136 °C.
`Cc1cc(I)cc(C)c1Oc1ccc([N+](=O)[O-])c(Nc2ccc(C#N)cc2)n1` showed a melting point of 162 to 165 °C.
Turning to `CN(C)C(N)=C(C#N)C#N`, the melting point lay within 228 to 229 °C.
Take `CCc1[nH]n(C2CCCC2)c2nc(-c3cccc(OCC(=O)O)c3)nc(=O)c1-2`: the melting point is 299 to 300 °C.
The same measure for `CN1CC(N(C)[C@@H]2c3cc(C#N)ccc3OC(C)(C)[C@H]2O)=CC1=O` (relative stereo): 266 to 269 °C; for `S=c1nc(-c2ccc(Cl)c(Cl)c2)[nH]n1Cc1ccccc1`: 227 to 228 °C; for `CC(=O)c1ccc(NC(=O)C=C(c2ccc(Cl)cc2)c2ccc(Cl)cc2)cc1`: 213 to 215 °C.
The same measure for `CC(C)CCn1c(CN2C(=O)N(C3CC3)Cc3ccccc32)nc2cc(CN)ccc21`: 113 °C.
The same measure for `COc1ccc(N2CCN(c3ccc(-n4cn[nH]c4=O)cc3)CC2)cc1`: 300 °C; for `Cn1cc(C(=O)NCc2ccc(Cl)cc2)c(=O)c2cccc(C#CCCO)c21`: 195 to 197 °C.
Compound `CCOC(=O)C1=C(C)NC(C)=C(C(=O)OCC(F)(F)F)C1c1cccc([N+](=O)[O-])c1` (stereo not drawn) came in with a melting point of 192 °C.
The same measure for `N=C(N)c1ccc(N2CCN(c3ccc(SCC(=O)O)cc3)C2=O)cc1`: greater than 275 °C.
Regarding `Cc1ccc(C(=O)N(C)C)cc1-c1nc(NCCNC(C)C)nc2c1CNC(=O)N2c1c(F)cccc1F`, the melting point lay within 130 to 133 °C.
Take `CC(C#N)CCC(=O)O` (stereo not drawn): the melting point was 31.9 to 32.6 °C.
On to `NS(=O)(=O)c1cccc(Cl)c1C=C1CCOC1=O`, for which the melting point is 172 to 174 °C.
The same measure for `COCC1COc2cc3ncnc(Nc4ccc(F)c(Cl)c4)c3cc2O1` (stereo not drawn): 260 to 285 °C.
Take `CSc1ccc(Nc2nc(=O)cc(N)n2-c2ccc(C)cc2)cc1`: the melting point fell in the range of 231 to 234 °C.
The same measure for `CC(C)(C)N[C@@H]1Cc2c(O)cccc2C[C@H]1O` (relative stereo): 123 to 127 °C; for `Cc1cc(/C=C/C(=O)O)c(C)n1-c1ccc(C(=O)N(C)C)cc1`: 182 to 184 °C; for `O=C(NCc1ccc2ccn(C3CCN(CCc4ccc(F)cc4)CC3)c2c1)C(F)F`: 79 to 80 °C.
The same measure for `OCc1c(Cl)ccc2nnsc12`: 138 to 140 °C; for `COc1ccc(C(C)CC(=O)N2C(=O)OCC2C(C)C)cc1` (stereo not drawn): 62 to 63.5 °C.
As to `ClCOc1ccc(Cl)cc1Br`, the melting point fell in the range of 56 to 57.5 °C.
`COc1c(C(C)(C)C)cc(COc2cccc(C=C3SC(=S)NC3=O)c2)cc1C(C)(C)C`: the melting point was 239 to 243 °C.
Take `Cc1oc(-c2ccccc2)nc1COc1ccc(COc2ccc(O)cc2CC(=O)O)cc1`: the melting point lay in the range of 194 to 195 °C.
`Cc1c(F)cc2c(=O)c(C(=O)O)cn(C3CC3)c2c1F` came in with a melting point of 208 to 210 °C.
`CCC1(c2cccc(OCc3ccc4c(ccc(=O)n4C)c3)c2)CCOCC1` returned a melting point of 139 °C.
Under `CCOC(=O)COc1ccc(S(=O)(=O)CCNS(=O)(=O)c2ccccc2)cc1` stands 86.5 to 88 °C; under `COc1cc(NC(=O)OC(C)(C)C)c([N+](=O)[O-])cc1I`, 171 °C; under `COc1ccc(Nc2ccc(Cl)cc2C(=O)O)cc1`, 188 to 189 °C.
Under `COc1ccc(C2=NN(C3CCCCCC3)C(=O)[C@H]3CC=CC[C@@H]23)cc1OCC1CC1` (relative stereo) stands 102 to 103 °C; under `COC(=O)C1=C(CO)NC(C)=C(C(=O)OC(C)C)C1c1ccccc1[N+](=O)[O-]` (stereo not drawn), 135 to 137 °C; under `C=Cc1c(N)nc(-c2ccc(Cl)c(OC)c2F)nc1C(=O)OC`, 145 to 147 °C.
Under `CN(C)S(=O)(=O)c1ccc(C(F)(F)F)cc1S(N)(=O)=O` stands 189 to 191 °C; under `CCCn1c(C)c2c(c1C)C(=O)C(C)=C(C)C2=O`, 165 to 167 °C; under `O=C(NCc1cccnc1)c1[nH]c2ccc(Cl)cc2c1S(=O)(=O)c1ccccc1`, 263 to 264 °C.
Compound `CCOCCn1c(NC2CCN(CCC3(c4ccc(C)c(C)c4)CCN(C(=O)c4cc(OC)c(OC)c(OC)c4)C3)CC2)nc2ccccc21` (stereo not drawn) had a melting point of 108 to 119 °C.
In the case of `CC(C)(C)NC(=O)c1ccc(S(=O)(=O)Cl)cc1`, the melting point was 179 °C.
As for `CCCCCCCCCCCCCCCC1Cc2ccc(C(=O)O)cc2N1` (racemic), the melting point was 119 to 122 °C.
The same measure for `CN1CC(CN)Oc2c(-c3cccc(Cl)c3)cccc21` (stereo not drawn): 134 °C.
The same measure for `O=C(O)c1ccc(S(=O)(=O)Cc2c(O[C@H](Cn3ccnc3)c3ccccc3)ccc3c2CCCC3=O)cc1`: 250 °C; for `ClC1(c2cccs2)CC1c1ccccc1` (stereo not drawn): 61 to 63 °C; for `C=CCC1c2ccccc2Cn2cc3c(c21)C(=O)c1ccccc1C3=O` (stereo not drawn): 159 to 160 °C.
`C[C@]1(CN2CCC(OCc3ccc(Cl)c(Cl)c3)CC2)Cn2cc([N+](=O)[O-])nc2O1` displayed a melting point of 132 to 136 °C.
In the case of `COc1ccc(C2CC(=O)CC(c3ccc(OC)cc3)N2C)cc1` (stereo not drawn), the melting point fell in the range of 129 to 130 °C.
Under `O=C(ON1C(=O)CCC1=O)c1ccco1` stands 126 to 127 °C; under `Cc1ccc(-c2ccc(NC(=O)OC(C)(C)C)c([N+](=O)[O-])c2)cc1`, 105 to 108 °C.
Under `CC(C)c1ccc(C(=O)Cc2c(Cl)cccc2Cl)c(C(C)C)c1OS(N)(=O)=O` stands 203 to 205 °C; under `O=C(N1CC([N+](=O)[O-])([N+](=O)[O-])C1)C(F)(F)F`, 70 to 71 °C.
In turn, `CC(C)(CNC(=O)c1ncc[nH]1)c1ccc(C(=O)Nc2cn3cc(C(F)(F)F)ccc3n2)cc1` had a melting point of 292 to 293 °C.
Under `COc1cc(-c2cccc(Cl)c2)c2cc(Br)ccc2n1` stands 124 °C.
In turn, `CC(c1noc(C(F)F)n1)N1C(=O)C2(COc3cc4c(cc32)OCO4)c2c(Cl)cccc21` (stereo not drawn) displayed a melting point of 179 to 182 °C.
As to `C=C1CCN(CC)c2c(CSc3nc4ccccc4[nH]3)cccc21`, the melting point lay within 148 to 149 °C.
The same measure for `COC(CNC(=O)c1ccc(N2CCN(C(=O)c3ccccc3C(F)(F)F)CC2)nn1)C(C)(C)C` (stereo not drawn): 65 to 68 °C; for `NC(=O)OCCN1Cc2ccccc2CCO1`: 110 to 111 °C; for `CON(C)C(=O)CC(c1cccc(Br)c1)c1ccccc1C` (stereo not drawn): 89 °C.
`Nc1c(-c2ccc(-c3ccccc3F)cc2)nc2ccc(F)cc2c1C(=O)O` registered a melting point of 248 to 250 °C.
The compound `CC(C)(C)C(NC(=O)c1ccc(Cl)cc1)NC(=NC#N)Nc1cccc(Cl)c1` (stereo not drawn) came in with a melting point of 158 to 160 °C.
Under `CC(C)(C)N(O)CP(=O)(OCc1ccccc1)OCc1ccccc1` stands 106 to 107 °C; under `CCS(=O)(=O)CCN1CCCCC1`, 45 to 47 °C; under `C#CCN(c1ccc(C(=O)NC(CCCCC(=O)O)C(=O)O)cc1)C1CCc2cc3nc(C)[nH]c(=O)c3cc21` (mixture of isomers), 165 °C.
The same measure for `COc1ccc(-c2cc(OC3SCC(O)C(O)C3O)ccn2)cc1` (stereo not drawn): 150 to 154 °C; for `C[C@@H](CSc1nc2ccccc2cc1-c1ccccc1)NC(=O)OC(C)(C)C`: 86 to 87 °C.
Under `Nc1ccc(F)c(CO)c1` stands 80 to 84 °C.
For `CC(C)(C)OC(=O)N1CCc2cccc([N+](=O)[O-])c2CC1`, the melting point lay within 85 to 88 °C.
`C[C@H](NC(=O)OCc1ccccc1)C(=O)N1CCC[C@H]1C(=O)O` (Cbz-Ala-Pro-OH) had a melting point of 124 to 125 °C.
In turn, `CCCCCc1cc2c(nc(O)n2CC2CCN(S(=O)(=O)CC)CC2)c(N)n1` had a melting point of 222 to 225 °C.
In turn, `CSCn1c(C(F)(F)F)nc2c(Br)cc(C(F)(F)F)cc21` yielded a melting point of 56 to 60 °C.
In the case of `CN(C)c1ccc(-c2noc([C@H]3CCCN(C(=O)c4ccc(F)cc4)C3)n2)cc1`, the melting point fell in the range of 147 to 153 °C.
With `CCOC(=O)C(C#N)Cc1cc(OC)c(OC)cc1C` (stereo not drawn), the melting point is 39 to 40 °C.
`COc1ccccc1-c1nc(N)c(C#N)nc1-c1ccc(=O)n(C(C)C)c1`: the melting point stood at 223 °C.
Under `Cc1ncc([N+](=O)[O-])cc1C(=O)NCCO` stands 144 to 145 °C; under `CN(C)c1ccc(S(=O)c2ccccc2)cc1N` (stereo not drawn), 85 to 86 °C; under `CS(=O)(=O)c1ccc(C(=O)C2C(=O)CCC(S(C)(=O)=O)C2=O)c(Cl)c1` (stereo not drawn), 175 to 180 °C.
The same measure for `COCCc1sc(C(O)(c2nc(C)c(CCOC)s2)C(F)(F)F)nc1C`: 68 to 69 °C.
Under `COc1cccc(CC(=O)O)c1OCCCc1cn(-c2ccccn2)nc1C(C)C` stands 102 to 104 °C.
With `O=C(Nc1ccc2cc(CN3CCCC3)cnc2c1)c1ccc(-c2ccc(Cl)cc2)cc1F`, the melting point was found to be 177 °C.
The same measure for `Cc1ccc2c(n1)C(C(N)=O)CCC2` (stereo not drawn): 114 °C; for `NC(=O)c1cc(Cl)c(NC(=O)CCl)c(Cl)c1`: 260 °C.
As for `COC(=O)c1ccc(-c2nn(Cc3ccccc3)c3ccc(N)cc23)o1`, the melting point fell in the range of 195 to 196 °C.
Under `CNS(=O)(=O)c1cc(C(=O)NNC(=O)c2occ(-c3ccccc3)c2-c2ccccc2)ccc1OC` stands 239 to 241 °C.
The same measure for `Cc1cc(CCCCCCCc2ccc(C#N)cc2)on1`: 61 °C.
